Structures can show the parent of a compound that is named as a salt. Where two headings read alike, the source gives them in different places.
What was measured:
dopamine D2 = biological target: T1, dopamine D2 (Rattus norvegicus, UniProt P61169); experiment: Receptor Binding Assay, dopamine D2 (3H-spiperone, P2 fraction from striatum); design: species or system male, Wistar rats
T1 construct: P2 fraction (synaptosomal membranes) prepared from male, Wistar rats; from tissue; host or cells: rat (Wistar, male) striatum, P2 synaptosomal membranes
T1 sequence (P61169 whole entry): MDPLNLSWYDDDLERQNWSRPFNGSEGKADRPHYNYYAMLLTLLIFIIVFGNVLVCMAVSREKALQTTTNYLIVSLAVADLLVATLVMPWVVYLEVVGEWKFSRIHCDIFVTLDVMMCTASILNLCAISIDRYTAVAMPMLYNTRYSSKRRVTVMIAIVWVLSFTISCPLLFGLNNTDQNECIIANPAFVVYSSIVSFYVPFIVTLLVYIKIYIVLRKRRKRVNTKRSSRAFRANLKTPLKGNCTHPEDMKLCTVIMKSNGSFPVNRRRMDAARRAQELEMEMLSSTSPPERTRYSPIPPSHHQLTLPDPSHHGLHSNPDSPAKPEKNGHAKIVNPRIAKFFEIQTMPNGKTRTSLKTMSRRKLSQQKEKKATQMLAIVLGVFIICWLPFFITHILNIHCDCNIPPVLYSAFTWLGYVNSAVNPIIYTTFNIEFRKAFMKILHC
Procedure: The dopamine D2 and serotonin 5-HT1A binding activity of compounds was determined using a P2 fraction (synaptosomal membranes) prepared from male, Wistar rats. The D2 assay employed a P2 fraction from the striatum, the ligand ^3 H-spiperone at a concentration of 0.05 nM, and […] haloperidol as a blank determinant. […].
(§1) The data from each assay were analyzed by calculating the percent inhibition of the binding of the tritiated ligands by given concentrations of the test compound. KI values, where given, were obtained from the logit analysis of concentration-inhibition curves.

serotonin 5-HT1A = biological target: T2, serotonin 5-HT1A (Rattus norvegicus, UniProt P19327); experiment: Receptor Binding Assay, serotonin 5-HT1A (3H-8-hydroxy-DPAT, P2 fraction from cerebral cortex); design: species or system male, Wistar rats; conditions: known drugs, 3H-8-hydroxy-DPAT 3 nM, pH 7.5, 20 min, 25° C., read-out: KI values for some known drugs, 5-HT1A assay
T2 construct: P2 fraction (synaptosomal membranes) prepared from male, Wistar rats; from tissue; host or cells: rat (Wistar, male) cerebral cortex, P2 synaptosomal membranes
T2 sequence (P19327 1-422): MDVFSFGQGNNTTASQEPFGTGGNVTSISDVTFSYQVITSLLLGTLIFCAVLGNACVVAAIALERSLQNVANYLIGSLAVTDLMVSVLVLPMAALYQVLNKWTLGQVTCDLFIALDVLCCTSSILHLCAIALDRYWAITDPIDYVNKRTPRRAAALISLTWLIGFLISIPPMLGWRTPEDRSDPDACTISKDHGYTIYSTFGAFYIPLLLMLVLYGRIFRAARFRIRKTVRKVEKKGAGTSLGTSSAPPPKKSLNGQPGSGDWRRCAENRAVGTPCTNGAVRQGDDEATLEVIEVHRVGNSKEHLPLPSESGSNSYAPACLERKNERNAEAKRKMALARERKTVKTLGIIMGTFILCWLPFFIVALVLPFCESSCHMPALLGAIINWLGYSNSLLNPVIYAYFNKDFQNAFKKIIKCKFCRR
Procedure: The dopamine D2 and serotonin 5-HT1A binding activity of compounds was determined using a P2 fraction (synaptosomal membranes) prepared from male, Wistar rats.
as §1

[1] = 3H-spiperone 0.05 nM, rat striatum P2 fraction, pH 7.5, 45 min, 37° C., read-out: Receptor Binding, Ki, D-2

Ki (dopamine D2; [1]) | SMILES | Ki (dopamine D2) | further results
> 1000 nM | O=C(c1cccc(CN2CCN3c4ccccc4OCC3C2)c1)N1CCCCC1 (centres unmarked) [Compound 13, 1-(3-(1-(1,2,3,4,4a,5-hexahydropyrazino(1.2-c)-1,4-benzoxazinyl)methyl)benzoyl)pipridine Sesquioxalate] |  | 
 | O=C(c1cccc(CN2CCc3c([nH]c4ccccc34)C2)c1)N1CCc2ccccc21 [Compound 11, 1-(3-(2-(1,2,3,4-Tetrahydro-9H-pyrido(3.4-b)indolyl)methyl)benzoyl)indoline Monofumarate] | > 1000 nM | 
 | Cc1ccc(N(CC2=NCCN2)c2cccc(O)c2)cc1 [phentolamine] |  | Ki (serotonin 5-HT1A): 59 nM
 | O=C(c1cccc(CN2CCc3c([nH]c4ccccc34)C2)c1)N1CCCCC1 [Compound 9, 1-(3-(2-(1,2,3,4-Tetrahydro-9H-pyrido(3,4-b)indolyl)methyl)-benzoyl)piperidine Monooxalate 0.3 Hydrate] | 374 nM | 
> 1000 nM | O=C(c1cccc(CN2CCN3c4ccccc4OCC3C2)c1)N1CCc2ccccc21 (centres unmarked) [Compound 14, 1-(3-(3-(1,2,3,4,4a,5-Hexahydropyrazino(1,2-c)-1,4-benzoxazinyl)methyl)benzoyl)iondoline 1.2 Oxalate] |  | 

From patent publication US5512566A, “Tricyclic compounds having affinity for the 5-HT1A receptor” (priority 1993, dated 1996)
